Assays:
Type in all cases: ADME, organism-based
Details in all cases: in vivo
[1] = Drug level in Sprague-Dawley rat feces treated with 3FDT at 40 mg/kg, iv administered as single dose after 24 hrs by HPLC-TIC chromatography
[2] = Drug level in Sprague-Dawley rat urine treated with 3FDT at 40 mg/kg, iv administered as single dose after 24 hrs by HPLC-TIC chromatography
Plasma = test: Drug level in Sprague-Dawley rat plasma treated with 3FDT at 40 mg/kg, iv administered as single dose after 4 to 24 hrs by HPLC-TIC chromatography

Measured: Drug metabolism

CC(=O)O[C@@]12CO[C@@H]1C[C@@H](O)[C@@]1(C)C(=O)[C@H](O)C3=C(C)[C@@H](OC(=O)[C@H](O)[C@@H](NC(=O)OC(C)(C)C(F)(F)F)c4ccccc4)C[C@@](O)([C@@H](OC(=O)c4ccccc4)C12)C3(C)C (stereo partly drawn)
metabolite_detected: all assays above
